From the supplement of paper PMC13207355
± gives the standard deviation of the averaged measurements.

Legend:
Details in all cases: exposure time: 72 h
E57 [1] = patient-derived glioblastoma stem cells of mesenchymal subtype; experiment: phenotypic distance (Euclidean, principal components) from DMSO controls (arbitrary units); higher = stronger morphological change
E21 [2] = patient-derived glioblastoma stem cells of mesenchymal subtype; experiment: as above
E34 [3] = patient-derived glioblastoma stem cells of proneural subtype; experiment: as above
E13 [4] = patient-derived glioblastoma stem cells of classical subtype; experiment: as above
FT3469 [5] = normal neural stem cell line; experiment: as above
E28 [6] = patient-derived glioblastoma stem cells of classical subtype; experiment: as above
E57 [7] = experiment: surviving fraction (nuclei count normalised to DMSO); higher = more cells surviving (less toxic)
E21 [8] = experiment: as above
E34 [9] = experiment: as above
E13 [10] = experiment: as above
FT3469 [11] = experiment: as above
E28 [12] = experiment: as above
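For phenotypic distance (Euclidean, principal components) from DMSO controls in this document: cell Painting imaging in 384-well plates, CellProfiler features reduced to at least 20 principal components, Euclidean distance versus same-plate DMSO vehicle wells (0.1% v/v), median over six images per well.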
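For surviving fraction (nuclei count normalised to DMSO) in this document: nuclei counted by high-content imaging of Hoechst-stained cells in laminin-coated 384-well plates, relative to 0.1% DMSO vehicle wells, with staurosporine as cell-death control.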

CCn1c(-c2nonc2N)nc2cnc(Oc3cccc(NC(=O)c4ccc(OCCN5CCOCC5)cc4)c3)cc21
phenotypic distance (E57 [1]; 4.1 nM): 0.962 ± 0.15 | phenotypic distance (E57 [1]; 12.3 nM): 1.68 ± 1.1 | phenotypic distance (E57 [1]; 37 nM): 0.775 ± 0.097 | phenotypic distance (E57 [1]; 111.1 nM): 0.817 ± 0.15 | phenotypic distance (E57 [1]; 333.3 nM): 1.73 ± 0.51 | phenotypic distance (E57 [1]; 1000 nM): 2.26 ± 0.43 | phenotypic distance (E57 [1]; 3000 nM): 3.68 ± 0.26 | phenotypic distance (E21 [2]; 4.1 nM): 1.88 ± 0.33 | phenotypic distance (E21 [2]; 12.3 nM): 2.27 ± 0.097 | phenotypic distance (E21 [2]; 37 nM): 2.12 ± 0.036 | phenotypic distance (E21 [2]; 111.1 nM): 2.01 ± 0.098 | phenotypic distance (E21 [2]; 333.3 nM): 1.94 ± 0.17 | phenotypic distance (E21 [2]; 1000 nM): 2.16 ± 0.28 | phenotypic distance (E21 [2]; 3000 nM): 2.66 ± 0.25 | phenotypic distance (E34 [3]; 4.1 nM): 1.73 ± 0.42 | phenotypic distance (E34 [3]; 12.3 nM): 1.69 ± 0.44 | phenotypic distance (E34 [3]; 37 nM): 2.04 ± 0.11 | phenotypic distance (E34 [3]; 111.1 nM): 1.79 ± 0.17 | phenotypic distance (E34 [3]; 333.3 nM): 1.73 ± 0.2 | phenotypic distance (E34 [3]; 1000 nM): 1.67 ± 0.12 | phenotypic distance (E34 [3]; 3000 nM): 2.39 ± 0.25 | phenotypic distance (E13 [4]; 4.1 nM): 2.07 ± 0.12 | phenotypic distance (E13 [4]; 12.3 nM): 2.22 ± 0.034 | phenotypic distance (E13 [4]; 37 nM): 2.86 ± 0.92 | phenotypic distance (E13 [4]; 111.1 nM): 2.12 ± 0.14 | phenotypic distance (E13 [4]; 333.3 nM): 2.126 ± 0.021 | phenotypic distance (E13 [4]; 1000 nM): 2.51 ± 0.32 | phenotypic distance (E13 [4]; 3000 nM): 3.08 ± 0.28 | phenotypic distance (FT3469 [5]; 4.1 nM): 2.61 ± 1.5 | phenotypic distance (FT3469 [5]; 12.3 nM): 1.73 ± 0.41 | phenotypic distance (FT3469 [5]; 37 nM): 1.75 ± 0.065 | phenotypic distance (FT3469 [5]; 111.1 nM): 1.587 ± 0.0035 | phenotypic distance (FT3469 [5]; 333.3 nM): 1.48 ± 0.056 | phenotypic distance (FT3469 [5]; 1000 nM): 1.9 ± 0.018 | phenotypic distance (FT3469 [5]; 3000 nM): 3.17 ± 0.13 | phenotypic distance (E28 [6]; 4.1 nM): 2.14 ± 0.14 | phenotypic distance (E28 [6]; 12.3 nM): 2.12 ± 0.071 | phenotypic distance (E28 [6]; 37 nM): 2.16 ± 0.14 | phenotypic distance (E28 [6]; 111.1 nM): 2.28 ± 0.11 | phenotypic distance (E28 [6]; 333.3 nM): 2.41 ± 0.027 | phenotypic distance (E28 [6]; 1000 nM): 3.356 ± 0.0074 | phenotypic distance (E28 [6]; 3000 nM): 3.1 ± 0.3 | surviving fraction (E57 [7]; 4.1 nM): 1.06 ± 0.028 | surviving fraction (E57 [7]; 12.3 nM): 1.01 ± 0.054 | surviving fraction (E57 [7]; 37 nM): 1.01 ± 0.011 | surviving fraction (E57 [7]; 111.1 nM): 0.996 ± 0.043 | surviving fraction (E57 [7]; 333.3 nM): 0.86 ± 0.025 | surviving fraction (E57 [7]; 1000 nM): 0.645 ± 0.083 | surviving fraction (E57 [7]; 3000 nM): 0.486 ± 0.059 | surviving fraction (E21 [8]; 4.1 nM): 0.933 ± 0.058 | surviving fraction (E21 [8]; 12.3 nM): 0.948 | surviving fraction (E21 [8]; 37 nM): 0.974 ± 0.049 | surviving fraction (E21 [8]; 111.1 nM): 0.925 ± 0.12 | surviving fraction (E21 [8]; 333.3 nM): 0.898 ± 0.05 | surviving fraction (E21 [8]; 1000 nM): 0.613 ± 0.032 | surviving fraction (E21 [8]; 3000 nM): 0.448 ± 0.037 | surviving fraction (E34 [9]; 4.1 nM): 1.12 ± 0.078 | surviving fraction (E34 [9]; 12.3 nM): 1.14 ± 0.2 | surviving fraction (E34 [9]; 37 nM): 1.176 ± 0.0026 | surviving fraction (E34 [9]; 111.1 nM): 0.989 ± 0.056 | surviving fraction (E34 [9]; 333.3 nM): 1.02 ± 0.087 | surviving fraction (E34 [9]; 1000 nM): 0.887 ± 0.11 | surviving fraction (E34 [9]; 3000 nM): 0.746 ± 0.021 | surviving fraction (E13 [10]; 4.1 nM): 0.992 ± 0.048 | surviving fraction (E13 [10]; 12.3 nM): 0.995 ± 0.035 | surviving fraction (E13 [10]; 37 nM): 0.9924 ± 0.0054 | surviving fraction (E13 [10]; 111.1 nM): 1.0033 ± 0.00067 | surviving fraction (E13 [10]; 333.3 nM): 1.03 ± 0.054 | surviving fraction (E13 [10]; 1000 nM): 0.729 ± 0.077 | surviving fraction (E13 [10]; 3000 nM): 0.633 ± 0.011 | surviving fraction (FT3469 [11]; 4.1 nM): 1.18 ± 0.047 | surviving fraction (FT3469 [11]; 12.3 nM): 1.18 ± 0.11 | surviving fraction (FT3469 [11]; 37 nM): 1.12 ± 0.095 | surviving fraction (FT3469 [11]; 111.1 nM): 1.055 ± 0.0038 | surviving fraction (FT3469 [11]; 333.3 nM): 1.06 ± 0.14 | surviving fraction (FT3469 [11]; 1000 nM): 0.911 ± 0.014 | surviving fraction (FT3469 [11]; 3000 nM): 0.766 ± 0.07 | surviving fraction (E28 [12]; 4.1 nM): 0.9684 ± 0.0013 | surviving fraction (E28 [12]; 12.3 nM): 0.977 ± 0.023 | surviving fraction (E28 [12]; 37 nM): 1.02 ± 0.11 | surviving fraction (E28 [12]; 111.1 nM): 0.996 ± 0.069 | surviving fraction (E28 [12]; 333.3 nM): 0.909 ± 0.034 | surviving fraction (E28 [12]; 1000 nM): 0.619 ± 0.0067 | surviving fraction (E28 [12]; 3000 nM): 0.5398 ± 0.0033

CCn1cc(-c2ccnc3[nH]c(-c4cccc(CN(C)C)c4)cc23)c(-c2ccc(NC(=O)N(C)C)cc2)n1
phenotypic distance (E57 [1]; 4.1 nM): 4.79 ± 0.41 | phenotypic distance (E57 [1]; 12.3 nM): 4.9 ± 0.57 | phenotypic distance (E57 [1]; 37 nM): 6.03 ± 0.14 | phenotypic distance (E57 [1]; 111.1 nM): 5.9 ± 0.088 | phenotypic distance (E57 [1]; 333.3 nM): 6.027 ± 0.058 | phenotypic distance (E57 [1]; 1000 nM): 5.9 ± 0.4 | phenotypic distance (E57 [1]; 3000 nM): 5.4 ± 0.3 | phenotypic distance (E21 [2]; 4.1 nM): 4.9 ± 0.059 | phenotypic distance (E21 [2]; 12.3 nM): 5.1 ± 0.052 | phenotypic distance (E21 [2]; 37 nM): 5.06 ± 0.62 | phenotypic distance (E21 [2]; 111.1 nM): 5.32 ± 0.66 | phenotypic distance (E21 [2]; 333.3 nM): 5.21 ± 0.49 | phenotypic distance (E21 [2]; 1000 nM): 4.91 ± 0.57 | phenotypic distance (E21 [2]; 3000 nM): 5.07 ± 0.28 | phenotypic distance (E34 [3]; 4.1 nM): 2.75 ± 0.24 | phenotypic distance (E34 [3]; 12.3 nM): 2.68 ± 0.43 | phenotypic distance (E34 [3]; 37 nM): 2.46 ± 0.13 | phenotypic distance (E34 [3]; 111.1 nM): 2.4 ± 0.34 | phenotypic distance (E34 [3]; 333.3 nM): 2.43 ± 0.12 | phenotypic distance (E34 [3]; 1000 nM): 2.62 ± 0.25 | phenotypic distance (E34 [3]; 3000 nM): 1.93 ± 0.35 | phenotypic distance (E13 [4]; 4.1 nM): 4.52 ± 0.16 | phenotypic distance (E13 [4]; 12.3 nM): 4.8 ± 0.56 | phenotypic distance (E13 [4]; 37 nM): 4.56 ± 0.091 | phenotypic distance (E13 [4]; 111.1 nM): 5.0354 ± 0.00092 | phenotypic distance (E13 [4]; 333.3 nM): 4.64 ± 0.07 | phenotypic distance (E13 [4]; 1000 nM): 4.84 ± 0.39 | phenotypic distance (E13 [4]; 3000 nM): 3.74 ± 0.68 | phenotypic distance (FT3469 [5]; 4.1 nM): 1.96 ± 0.42 | phenotypic distance (FT3469 [5]; 12.3 nM): 2.32 ± 0.26 | phenotypic distance (FT3469 [5]; 37 nM): 2 ± 0.04 | phenotypic distance (FT3469 [5]; 111.1 nM): 2.07 ± 0.15 | phenotypic distance (FT3469 [5]; 333.3 nM): 2.13 ± 0.28 | phenotypic distance (FT3469 [5]; 1000 nM): 2.98 ± 1.3 | phenotypic distance (FT3469 [5]; 3000 nM): 2.08 ± 0.33 | phenotypic distance (E28 [6]; 4.1 nM): 2.81 ± 0.22 | phenotypic distance (E28 [6]; 12.3 nM): 2.81 ± 0.44 | phenotypic distance (E28 [6]; 37 nM): 2.55 ± 0.41 | phenotypic distance (E28 [6]; 111.1 nM): 2.69 ± 0.18 | phenotypic distance (E28 [6]; 333.3 nM): 2.57 ± 0.28 | phenotypic distance (E28 [6]; 1000 nM): 2.83 ± 0.15 | phenotypic distance (E28 [6]; 3000 nM): 2.95 ± 0.096 | surviving fraction (E57 [7]; 4.1 nM): 0.385 ± 0.037 | surviving fraction (E57 [7]; 12.3 nM): 0.338 ± 0.016 | surviving fraction (E57 [7]; 37 nM): 0.287 ± 0.016 | surviving fraction (E57 [7]; 111.1 nM): 0.325 ± 0.0066 | surviving fraction (E57 [7]; 333.3 nM): 0.306 ± 0.016 | surviving fraction (E57 [7]; 1000 nM): 0.314 ± 0.021 | surviving fraction (E57 [7]; 3000 nM): 0.221 ± 0.011 | surviving fraction (E21 [8]; 4.1 nM): 0.418 ± 0.088 | surviving fraction (E21 [8]; 12.3 nM): 0.428 ± 0.015 | surviving fraction (E21 [8]; 37 nM): 0.442 ± 0.031 | surviving fraction (E21 [8]; 111.1 nM): 0.449 ± 0.086 | surviving fraction (E21 [8]; 333.3 nM): 0.359 ± 0.025 | surviving fraction (E21 [8]; 1000 nM): 0.4316 ± 0.0038 | surviving fraction (E21 [8]; 3000 nM): 0.314 ± 0.053 | surviving fraction (E34 [9]; 4.1 nM): 0.664 ± 0.086 | surviving fraction (E34 [9]; 12.3 nM): 0.622 ± 0.079 | surviving fraction (E34 [9]; 37 nM): 0.787 ± 0.074 | surviving fraction (E34 [9]; 111.1 nM): 0.815 ± 0.13 | surviving fraction (E34 [9]; 333.3 nM): 0.842 ± 0.02 | surviving fraction (E34 [9]; 1000 nM): 0.8037 ± 0.0053 | surviving fraction (E34 [9]; 3000 nM): 0.673 ± 0.082 | surviving fraction (E13 [10]; 4.1 nM): 0.468 ± 0.038 | surviving fraction (E13 [10]; 12.3 nM): 0.437 ± 0.068 | surviving fraction (E13 [10]; 37 nM): 0.458 ± 0.033 | surviving fraction (E13 [10]; 111.1 nM): 0.46 ± 0.046 | surviving fraction (E13 [10]; 333.3 nM): 0.49 ± 0.014 | surviving fraction (E13 [10]; 1000 nM): 0.456 ± 0.065 | surviving fraction (E13 [10]; 3000 nM): 0.439 ± 0.044 | surviving fraction (FT3469 [11]; 4.1 nM): 0.759 ± 0.042 | surviving fraction (FT3469 [11]; 12.3 nM): 0.76 ± 0.051 | surviving fraction (FT3469 [11]; 37 nM): 0.788 ± 0.021 | surviving fraction (FT3469 [11]; 111.1 nM): 0.844 ± 0.086 | surviving fraction (FT3469 [11]; 333.3 nM): 0.708 ± 0.033 | surviving fraction (FT3469 [11]; 1000 nM): 0.729 ± 0.056 | surviving fraction (FT3469 [11]; 3000 nM): 0.591 ± 0.044 | surviving fraction (E28 [12]; 4.1 nM): 0.639 ± 0.046 | surviving fraction (E28 [12]; 12.3 nM): 0.603 ± 0.008 | surviving fraction (E28 [12]; 37 nM): 0.542 ± 0.039 | surviving fraction (E28 [12]; 111.1 nM): 0.5559 ± 0.002 | surviving fraction (E28 [12]; 333.3 nM): 0.549 ± 0.016 | surviving fraction (E28 [12]; 1000 nM): 0.53 ± 0.023 | surviving fraction (E28 [12]; 3000 nM): 0.397 ± 0.11
